Like-named read-outs stand apart in the source and are kept apart here.
How the values were obtained:
[1] = tested on: Human Skin Fibroblast (HSF) cell line; assay: SRB cytotoxicity (cell viability) assay; format: cell-based; details: Homo sapiens; HSF cells, SRB assay, 72 h exposure, 0.01–100 μM
Procedure: (§1) Human Skin Fibroblast cell line was obtained from Nawah Scientific Inc., (Mokatam, Cairo, Egypt). Cells were maintained in DMEM media supplemented with […] of streptomycin, 100 units per mL of penicillin and 10% of heat-inactivated fetal bovine serum in humidified, 5% (v/v) CO2 atmosphere at 37 °C.
(§2) Absorbance was measured in the cytotoxicity assay at 540 nm on a BMG LABTECH®-FLUOstar Omega microplate reader (Ortenberg, Germany).
(§3) Cell viability was assessed by SRB assay.[25] Aliquots of 100 μL cell suspension (5 × 10^3 cells) were in 96-well plates and incubated in complete media for 24 h. Cells were treated with another aliquot of 100 μL media containing (DP 1, DP 2, DP 3, DP 4, DP 5 and Doxorubicin as positive control) at various concentrations ranging from (0.01, 0.1, 1, 10, 100 μm). After 72 h of drug exposure, cells were fixed by replacing media with 150 μL of 10% TCA and incubated at 4 °C for 1 h. The TCA solution was removed, and the cells were washed 5 times with distilled water. Aliquots of 70 μL SRB solution (0.4% w/v) were added and incubated in a dark place at room temperature for 10 min. Plates were washed 3 times with 1% acetic acid and allowed to air-dry overnight. Then, 150 μL of Tris (10 mM) was added to dissolve protein-bound SRB stain; the absorbance was measured at 540 nm using microplate reader. The percentage of cell viability was calculated by using the following formula:[26] [drawing 1]
(§4) Cytotoxicity assay was carried out to confirm the in silico toxicity prediction study results. As an in vitro method to monitor the potential toxicity and/or safety of simeprevir and its degradation products (DP 1, DP 2, DP 3, DP 4 and DP 5), against Human Skin Fibroblast (HSF) cell line. SRB assay was used to assess the effect of these compounds on the viability and proliferation of HSF cell line (Table S1 ^†), in addition to taking images using the optical microscope to register any change on the tested cells.
(§5) The percentage of cell viability was measured at five different concentrations (0.01, 0.1, 1, 10 and 100 μM) in comparison with doxorubicin as a standard drug (positive control) which is monitored at the same concentration range after incubation for 72 h period.

[2] = SRB cytotoxicity (cell viability) assay; format: cell-based, Human; details: human, Human Skin Fibroblast (HSF) cells; for viability at 72 h, 0.01 µM / viability at 72 h, 0.1 µM / viability at 72 h, 1 µM / viability at 72 h, 10 µM: n = 3
Procedure: as §1, §2, §3, §4, §5

[3] = tested on: Human Skin Fibroblast (HSF) cell line; assay: Optical microscope stained images of the cytotoxicity assay; format: cell-based; details: HSF cells, magnification 200×
Procedure: as §4
The optical microscope stained images were recorded as shown in Fig. 7 comparing the cytotoxic effect of the five degradation products with that of doxorubicin at a concentration of 100 μM. […] This proves that simeprevir acidic and oxidative degradation products are non-toxic up to 100 μM (IC50 > 100 μM).

[4] = Forced degradation study (stress degradation, HPLC); format: physicochemical
Procedure: The forced degradation studies were carried out on 1 mg mL^−1 in methanol. Acidic hydrolysis was performed by treating the drug with 0.5 M hydrochloric acid for 5 hours, while the basic hydrolysis conditions were 1 M sodium hydroxide for 5 hours. In both cases, the reaction was immersed in a boiling water bath maintained at 100 °C.
Oxidative degradation was performed by treating the drug with 3% hydrogen peroxide for 5 hours and the reaction was immersed in a boiling water bath maintained at 100 °C. In the thermal degradation, simeprevir was subjected to high temperature by placing the drug in a thermostatic oven at 100 °C.
The samples from the acidic and basic hydrolysis stress tests were neutralized and diluted with methanol to achieve final assay concentrations of 100 μg mL^−1. The final sample solutions were filtered through a 0.45 μm membrane before HPLC analysis. All sample solutions were stored at 4 °C in a refrigerator to avoid degradation.
Although, previous reports by Attia et al.[18] and Mohammed et al.[27] uses different basic hydrolysis conditions; 0.1 N NaOH for 3 hours at room temperature and 1 M NaOH for 2 hours at 60 °C; respectively. […] In our report, no peak was observed after HPLC injection of the alkaline degradation samples which is confirmed using TLC and Flash Chromatography; in which only drug peak was detected.

[5] = cited from earlier work
[6] = no reference given; cited from earlier work
[7] = 72 h, n = 3, read-out: Viability % (Mean)

% Degradation, acidic degradation ([4]; 0.5 M HCl at 100 °C, 5 hours) [%] | % Degradation, alkaline degradation ([4]; 1 M NaOH at 100 °C, 5 hours) | % Degradation, oxidative degradation ([4]; 3% w/v H2O2 at 100 °C, 5 hours) [%] | % Degradation, thermal degradation ([4]; Oven at 100 °C, 10 hours) | Compound | IC50 [1] [µM] | viability at 72 h, 0.01 µM ([2]; 72 h) [%] | viability at 72 h, 0.1 µM ([2]; 72 h) [%] | viability at 72 h, 1 µM ([2]; 72 h) [%] | viability at 72 h, 10 µM ([2]; 72 h) [%] | viability at 72 h, 100 µM [2, 7] [%] | viability at 72 h, 100 µM ([2]; single replicate, read-out: cell viability in one of the replicates) [%] | morphological changes ([3]; 100 μM) | morphological changes ([3]; 0.1 μM) | degradation percentage, basic hydrolysis ([5]; 0.1 N NaOH for 3 hours at room temperature, ref 18 (Attia et al.)) [%] | degradation percentage, basic hydrolysis ([5]; 1 M NaOH for 2 hours at 60 °C, ref 27 (Mohammed et al.)) [%] | pKa [6]
– | – | – | – | COc1ccc2c(OC3C[C@H]4C(=O)OC(=O)[C@@H]4C3)cc(-c3nc(C(C)C)cs3)nc2c1C [DP 1] | > 100 | 98.7 | 96.5 | 95.6 | 95.2 | 92.9 | – | – | – | – | – | –
– | – | – | – | COc1ccc2c(OC3CC4C(=O)NC5CC5C=CCCCCN(C)C(=O)C4C3)cc(-c3nc(C(C)C)cs3)nc2c1C (stereo not shown) [DP 2] | > 100 | 98.5 | 98.5 | 97.4 | 97.1 | 95.6 | – | – | – | – | – | –
– | – | – | – | CN1CCCCC=CC2CC2(C(=O)NS(=O)(=O)C2CC2)NC(=O)C2CC(O)CC2C1=O (stereo not shown) [DP 3] | > 100 | 97.7 | 97.6 | 93.4 | 91.1 | 90.9 | 89.9 | slight changes | – | – | – | –
– | – | – | – | COc1ccc2ccc(-c3scc(C(C)C)[n+]3[O-])[n+]([O-])c2c1CO [DP 4] | > 100 | 96.1 | 93.9 | 93.1 | 92.1 | 92.7 | – | – | – | – | – | –
– | – | – | – | COc1ccc2ccc(-c3scc(C(C)C)[n+]3[O-])[n+]([O-])c2c1C [DP 5] | > 100 | 96.3 | 96.8 | 93.7 | 93 | 92.5 | – | – | – | – | – | –
– | – | – | – | COc1cccc2c1C(=O)c1c(O)c3c(c(O)c1C2=O)C[C@@](O)(C(=O)CO)C[C@@H]3O[C@H]1C[C@H](N)[C@H](O)[C@H](C)O1 [Doxorubicin, reference compound] | 1.4 | 99.5 | 98.4 | 59.9 | 15.5 | 3.29 | – | – | no occurrence of morphological changes | – | – | –
26.63 | No degradation | 21.87 | No degradation | COc1ccc2c(O[C@@H]3C[C@H]4C(=O)N[C@]5(C(=O)NS(=O)(=O)C6CC6)C[C@H]5/C=C\CCCCN(C)C(=O)[C@@H]4C3)cc(-c3nc(C(C)C)cs3)nc2c1C [Simeprevir] | – | – | – | – | – | – | – | – | – | 35.55 | 39.80 | 5.9
